Values after ≈ are worked out from the molar mass of the structure shown. Like-named read-outs stand apart in the source and are kept apart here.
Tests used:
HIV-1(IIIB) = assay: Anti-HIV-1 activity in CD4+ T-lymphocyte CEM cell cultures; assay type: cell-based; conditions: Human immunodeficiency virus 1, CCRF-CEM, virus-induced cytopathicity
Description: (§1) Human CD4 ^+ T-lymphocyte CEM cell cultures were inoculated with HIV-1 and HIV-2 and exposed to adefovir, tenofovir, or PMEO-DAPym. […]

HSV-2 (G) [1] = assay: HSV-2 infection of primary monocyte/macrophage (M/M) cultures; assay type: cell-based
Procedure: We obtained human PBMC from the blood of healthy seronegative donors using Ficoll–Hypaque density gradient centrifugation. The PBMC were resuspended in RPMI 1640 medium supplemented with 20% heat-inactivated serum and then seeded into 48-well plates (1.8×10^6 cells/well). M/M were separated by adherence onto plastic. After 5 days, non-adherent cells were carefully removed by repeated gentle washings with warm medium, and adherent M/M were cultured for an additional 3 days to mature and to form a monolayer. M/M were estimated to be 10^5 cells/well at the time of infection. […]. Similarly, macrophage cultures were treated with the same concentrations of adefovir and tenofovir. Macrophage cultures were then infected with HSV-2 (G) (100 TCID50) in the presence of the compounds. After 2 h of adsorption, the cultures were extensively washed to remove any residual virus particles. Fresh complete medium and compounds, at the established concentrations, were then added to the cultures. Appropriate positive (infected but not treated) and mock-infected negative (uninfected and untreated) M/M controls were run for each experiment as well. All assays were performed in triplicate. […] We determined the amount of infectious virus in the supernatants 5–6 days after infection using the cytopathic effect assay. Tenfold serially diluted supernatants were added to confluent monolayers of Vero cells in 96-well plates (100 µl/well, 6 parallel wells). […] The titers of virus produced were calculated according to the Reed and Muench method and expressed as 50% tissue culture infective dose per mL (TCID50/mL).

HSV-2 (G strain) = assay: Pre-treatment of PHK cell cultures, HSV-2 infection (CPE)
Procedure: (§2) The HSV-induced cytopathic effect (CPE) was evaluated in HSV-infected HEL and PHK cultures as described [44], [48].

HSV-1 (KOS strain) = assay: Pre-treatment of PHK cell cultures, HSV-1 infection (CPE)
Procedure: as §2

HIV-2(ROD) = assay: Anti-HIV-2 activity in CD4+ T-lymphocyte CEM cell cultures; assay type: cell-based; conditions: Human immunodeficiency virus 2, CCRF-CEM; HIV-2(ROD), CEM, virus-induced cytopathicity; read-out: EC50
Description: as §1

HSV-2 (G) [2] = assay: HSV-2 replication in human ex vivo tonsillar (lymphoid) tissue, viral DNA; assay type: cell-based
Description: Figure 5 Suppression of HSV-2 in infected human ex vivo tonsillar tissue by adefovir and PMEO-DAPym. Blocks of human tonsillar tissue were inoculated ex vivo with HSV-2 (G) and treated or not with adefovir or PMEO-DAPym. We monitored HSV-2 (G) replication by measuring viral DNA in culture media at different times throughout the culture period. Presented are means ± SEM of cumulative HSV-2 (G) replication in tissues from two to six donors. For each donor, data represent pooled viral release from 27 tissue blocks.
Figure 7 Suppression of HSV-2 in single-infected and HIV-1 co-infected human ex vivo tonsillar tissue by adefovir and PMEO-DAPym. Panels A and B: Blocks of human tonsillar tissue from five different donors were co-inoculated ex vivo with HSV-2 (G) and HIV-1 (LAI) and treated or not with adefovir or PMEO-DAPym (1 µg/ml). For tissue from each donor, we monitored replication of both viruses by evaluating their accumulation in the culture media bathing 27 tissue blocks at different times throughout the culture. We evaluated HIV-1 replication by measuring p24gag and HSV-2 (G) replication by measuring HSV-2 viral DNA. Panel A: Presented are kinetics of HSV-2 (G) and HIV-1 (LAI) replication (insert). Each point represents the mean ± SEM of viral replication in tissues from five donors. Panel B: Presented are means ± SEM of cumulative HSV-2 (G) and HIV-1 (LAI) replication (insert).
Human tonsillar tissues were obtained from patients undergoing routine tonsillectomy at the Children's National Medical Center (Washington, DC) under IRB-approved protocol. Cervical tissues were obtained through the National Disease Research Interchange (NDRI, Philadelphia, PA). Tissues were dissected into blocks of about 2×2×2 mm and placed onto collagen sponge gels in culture medium at the air-liquid interface as described earlier. For tonsillar tissue for each experimental condition, 27 tissue blocks (9 blocks/well filled with 3 ml of medium) were inoculated with HSV-1 (strain F) or HSV-2 (strains G and MS). In coinfection experiments, tissue blocks were sequentially infected with HSV-2 (G) and HIV-1 (IIIB) (obtained from the Rush University Virology Quality Assurance Laboratory, Chicago, IL). Drugs (adefovir and PMEO-DAPym) were added to the culture medium 12 h prior to viral infection and replenished at each culture medium change.
For cervico-vaginal tissue, 16 blocks were infected by immersion in HSV-2G-containing medium and maintained on the gelfoam rafts. Adefovir was added at the time of infection and replenished at each culture medium change. HSV replication was evaluated from the release of viral DNA into the culture medium as measured with quantitative real-time PCR [18]. We evaluated HIV-1 replication from the release of p24 capsid antigen using a bead-based assay.

Compound: Nc1nc2c(ncn2COCCO)c(=O)[nH]1 [Acyclovir, 9-(2-hydroxyethyloxymethyl)guanine]
- EC50 (HIV-1(IIIB)): > 100 µg/mL
- Cytopathicity (CPE) on macrophages 6 days after infection % CPE (HSV-2 (G) [1]; 0.000025 µg/ml): 75%
- Virus production by HSV2-infected macrophages 6 days after infection (CPE reduction) (HSV-2 (G) [1]; 0.000025 µg/ml): 1.3×10^4 TCID50/ml
- Cytopathicity (CPE) on macrophages 6 days after infection % CPE (HSV-2 (G) [1]; 0.000128 µg/ml): 40%
- Virus production by HSV2-infected macrophages 6 days after infection (CPE reduction) (HSV-2 (G) [1]; 0.000128 µg/ml): 7.2×10^3 TCID50/ml
- Cytopathicity (CPE) on macrophages 6 days after infection % CPE (HSV-2 (G) [1]; 0.00064 µg/ml): 10%
- Virus production by HSV2-infected macrophages 6 days after infection (CPE reduction) (HSV-2 (G) [1]; 0.00064 µg/ml): 3.5×10^2 TCID50/ml
- Virus production by HSV2-infected macrophages 6 days after infection (CPE reduction) (HSV-2 (G) [1]; 0.003 µg/ml): No virus
- Virus production by HSV2-infected macrophages 6 days after infection (CPE reduction) (HSV-2 (G) [1]; 0.016 µg/ml): No virus
- Virus production by HSV2-infected macrophages 6 days after infection (CPE reduction) (HSV-2 (G) [1]; 0.08 µg/ml): No virus
- inhibition at 25 pg/mL (HSV-2 (G) [1]; Human alphaherpesvirus 2, 144 h, 0.000025 µg/ml, M/M, day 6, read-out: Inhibition of viral replication (% to control)): 7.2%
- inhibition at 0.000128 µg/mL (HSV-2 (G) [1]; Human alphaherpesvirus 2, 144 h, 0.000128 µg/ml, M/M, day 6, read-out: Inhibition of viral replication (% to control)): 49%
- inhibition at 0.00064 µg/mL (HSV-2 (G) [1]; Human alphaherpesvirus 2, 144 h, 0.00064 µg/ml, M/M, day 6, read-out: Inhibition of viral replication (% to control)): 97%
- inhibition at 0.003 µg/mL (HSV-2 (G) [1]; Human alphaherpesvirus 2, 144 h, 0.003 µg/ml, M/M, day 6, read-out: Inhibition of viral replication (% to control)): 100%
- inhibition at 0.016 µg/mL (HSV-2 (G) [1]; Human alphaherpesvirus 2, 144 h, 0.016 µg/ml, M/M, day 6, read-out: Inhibition of viral replication (% to control)): 100%
- inhibition at 0.08 µg/mL (HSV-2 (G) [1]; Human alphaherpesvirus 2, 144 h, 0.08 µg/ml, M/M, day 6, read-out: Inhibition of viral replication (% to control)): 100%
- EC50 (HSV-2 (G) [1]; Human alphaherpesvirus 2, HSV-2 (G), human monocyte/macrophages): 0.13 ± 0.015 µg/mL (≈ 0.577 µM)
- EC50 (HSV-2 (G strain); Human alphaherpesvirus 2, read-out: 50% effective concentration, PHK, HSV-2 G, +2 h to 72 h (control, drug present whole incubation)): 0.41 ± 0.13 µg/mL (≈ 1.82 µM)
- EC50 (HSV-2 (G strain); Human alphaherpesvirus 2, read-out: 50% effective concentration, PHK, HSV-2 G, pretreatment −2.5 h to 0 h): 50 µg/mL (≈ 222 µM)
- EC50 (HSV-2 (G strain); Human alphaherpesvirus 2, read-out: 50% effective concentration, PHK, HSV-2 G, pretreatment −6 h to 0 h): > 50 µg/mL
- EC50 (HSV-2 (G strain); Human alphaherpesvirus 2, read-out: 50% effective concentration, PHK, HSV-2 G, pretreatment −18 h to 0 h): > 50 µg/mL
- EC50 (HSV-1 (KOS strain); Human alphaherpesvirus 1, read-out: 50% effective concentration, PHK, HSV-1 KOS, +2 h to 72 h (control, drug present whole incubation)): 0.33 ± 0.25 µg/mL (≈ 1.47 µM)
- EC50 (HSV-1 (KOS strain); Human alphaherpesvirus 1, read-out: 50% effective concentration, PHK, HSV-1 KOS, pretreatment −2.5 h to 0 h): > 50 µg/mL
- EC50 (HSV-1 (KOS strain); Human alphaherpesvirus 1, read-out: 50% effective concentration, PHK, HSV-1 KOS, pretreatment −6 h to 0 h): > 50 µg/mL
- EC50 (HSV-1 (KOS strain); Human alphaherpesvirus 1, read-out: 50% effective concentration, PHK, HSV-1 KOS, pretreatment −18 h to 0 h): > 50 µg/mL
- EC50 (HIV-2(ROD)): > 100 µg/mL
- inhibition at 0.3 µg/mL (HSV-2 (G) [2]; Human alphaherpesvirus 2, human lymphoid tissue ex vivo, 0.3 µg/mL, read-out: Inhibition of viral replication (% to control)): 99.9%
- inhibition at 3 µg/mL (HSV-2 (G) [2]; Human alphaherpesvirus 2, human lymphoid tissue ex vivo, 3 µg/mL, read-out: Inhibition of viral replication (% to control)): > 99%
- HSV-2 DNA copies (HSV-2 (G) [2]; human lymphoid tissue ex vivo, 0.3 µg/mL): 1.69 e+5 copies
- HSV-2 DNA copies (HSV-2 (G) [2]; human lymphoid tissue ex vivo, 3 µg/mL): 2.83 e+4 copies
- Inhibition of viral replication (% to control) (HSV-2 (G) [2]; human lymphoid tissue ex vivo, 3 µg/mL, listed as ACV): 99.98%

Reference: publication PMC3723632, “A Multi-targeted Drug Candidate with Dual Anti-HIV and Anti-HSV Activity” (PLoS Pathogens, 2013)
